In patent EP2207528B1, “PHARMACEUTICAL COMPOSITION” (STI Pharmaceuticals Ltd., priority 2007, dated 2009):
Values after ≈ are worked out from the molar mass of the structure shown. Where two headings read alike, the source gives them in different places.

Legend:
[1] = Open study, THC-CBD inhaled (pMDI) vs intravenous, plasma pharmacokinetics by GC/MS; type: in vivo, healthy volunteers; settings: for time measurable in plasma after administration: 360 mcg i.h. and i.v. doses; for half-life: human, plasma, 720 ug, read-out: elimination half-lives; for half-life / mean i.h. bioavailability (calculated vs. i.v.) / time of plasma peak post-drug: 720 mcg
From the text: In an open study on 12 healthy volunteers a combination of THC and cannabidiol (CBD) was compared after inhalation (i.h.) and intravenously (i.v.) (see Rudolf Brenneisen, Pascale Meyer, Manuela Langos, Christian Steup and Andrew Davies, IACM Congress 2007, 05.10.2007 Cologne).
The liquid aerosol was produced by an in-vitro validated pMDI device, releasing about 45% of the cannabinoid dose, enabling a dosage of about 90 mcg THC and 90 mcg CBD per actuation. The actuator was used from Bespak with an orifice diameter of 0.22mm.
Three subjects (pilot study) received 360 and 9 subjects 720 mcg THC-CBD, corresponding to 4 and 8 actuations, respectively. The addition of a Lidocain HCL to the pulmonal preparation was expected to prevent mucosa irritation and coughing. The pharmacokinetic evaluation was based on plasma profiles aquired by GC/MS. Adverse effects were monitored by visual analog scales (VAS) and measuring vital functions.

[2] = oral; cited from earlier work
[3] = after inhalation of a THC aerosol, Pari Master; cited from earlier work
[4] = Solubility of local anaesthetic in ethanol and HFA 227

For CCCCCc1cc(O)c2c(c1)OC(C)(C)[C@@H]1CCC(C)=C[C@@H]21 [THC, delta-9-Tetrahydrocannabinol], the “time measurable in plasma after administration” value [1] was no more than 20 min, the main metabolite ([1]; after i.h.) was “Conjugated 11-carboxy-THC” and the THC metabolism ([1]; after i.h., compared with oral (p.o.) administration) was “less pronounced than after oral”. The half-life ([1]; inhaled, i.h.) was 7 min, the half-life ([1]; iv, i.v.) was 22 min and the “mean i.h. bioavailability (calculated vs. i.v.)” value ([1]; i.h.) was 55 ± 37%. For the same compound, the “time of plasma peak post-drug” value ([1]; i.h.) was 5 min, the “time of plasma peak post-drug” value ([1]; i.v.) was 5 min and the bioavailability [2] was 5-20%. The bioavailability [3] was 29%.

With CCCCNc1ccc(C(=O)OCCN(C)C)cc1 [Tetracain, Tetracaine Base] the solubility ([4]; ethanol, organic solvent or mixture) was 450 mg/mL (≈ 1700 mM), the solubility ([4]; hfa 227, organic solvent or mixture) was 40 mg/mL (≈ 151 mM) and the “Limit of solubility in Ethanol” value ([4]; in Ethanol) was 450 mg/mL. The “Limit of solubility in HFA 227” value ([4]; in HFA 227) was 40 mg/mL.

In the case of C=C(C)[C@@H]1CCC(C)=C[C@H]1c1c(O)cc(CCCCC)cc1O [CBD, Cannabidiol], the “time measurable in plasma after administration” value [1] is reported as no more than 20 min, the half-life ([1]; inhaled, i.h.) is reported as 11 min and the half-life ([1]; iv, i.v.) is reported as 24 min. For the same compound, the “mean i.h. bioavailability (calculated vs. i.v.)” value ([1]; i.h.) was 59 ± 47%, the “time of plasma peak post-drug” value ([1]; i.h.) was 5 min and the “time of plasma peak post-drug” value ([1]; i.v.) was 5 min.
